Reference: patent publication US5130120A, “Paramagnetic DTPA and EDTA alkoxyalkylamide complexes as MRI agents” (Mallinckrodt Medical, Inc., priority 1988, dated 1992)

Key:
[1] = T1 and T2 relaxivity, RADX (10 megahertz) NMR analyzer, 37° C.; assay type: physicochemical
Description: T1 and T2 relaxivity curves of the complex of Example II were obtained using a RADX (10 megahertz) NMR analyzer. The RADX analyzer was thermally stabilized at 37° C. before performing any T1 or T2 measurements. Overall range tuning and mid-range calibration were performed on a 37° C. warmed T1 standard at the beginning of the experiment, according to manufacturer's instructions. Subsequent to calibration, T1 standards were tested to verify calibration and linearity.
Ten millimolar solutions of the complex were prepared in sterile water for injection ("SWFI") and in 4% human serum albumin ("HSA")/0.9% NaCl. A series of lower concentrations (0.25, 0.50, 1.0, 2.5 and 5.0 mM) were prepared to form a concentration curve. A sample of each prepared concentration was warmed to 37° C. in an NMR sample tube prior to assay. Triplicate T1 and T2 values were obtained on each dilution.
Separate linear regressions were determined using the reciprocal T1 and T2 mean values for the complex diluted in SWFI and 4% HSA. The relaxivity curves were generated by plotting the reciprocal T1 or T2 value against concentration. The following relaxation rates were determined for the complex of Example II: […]

ICR mice = assay: acute intravenous toxicity (LD50) in ICR mice, 7-day observation; assay type: in vivo; conditions: for Deaths, Delayed (1-24 hr) / Deaths, Delayed (1-7 days) / Deaths, Immediate (0-1 hr) / Deaths, Total / Body Weight Change: 0.68 M; for Deaths, Total: deaths/animals
Description: The acute intravenous toxicity of the compound of Example II was determined as follows: ICR mice, at 1 to 4 per dose level, received single intravenous injections of the test substance via a lateral tail vein at the rate of approximately 1 ml/minute. The test substances were at concentrations chosen to result in dose volumes of 5 to 75 ml/kg body weight. Dosing began at a volume of 10 ml/kg. Dose adjustments up or down were made to closely bracket the estimated LD50 with 4 animals per group (2 males and 2 females). Observations of the mice were recorded at times 0, 0.5, 1,2,4 and 24 hours and once daily thereafter for up to 7 days post injection. On the 7th day post injection, the mice were euthanized, weighed and necropsied. Abnormal tissues were noted. At this time a decision was made as to whether any histopathology was to be performed and whether or not the tissues should be retained. Necropsies were also performed on mice expiring after 24 hours post-injection, except for dead mice found on the weekends. The LD50 values, along with 95% CI were calculated using a modified Behrens-Reed-Meunch method. The results for the complex of Example II are reported below:
Sex and Weight Range of Mice: Males(18.0-20.3 g) Females (19.0-21.7 g).

solubility in water = assay type: physicochemical; conditions: glassy solid
Description: A 15% excess of the bis(2-methoxyethylamide) of EDTA produced by the procedure described in Example XI (1.1 g, 0.0026 mol) was dissolved in water (10 ml) and MnCO3 (0.27 g, 0.0023 mol) was added. Upon warming for 30 minutes, the solution became homogeneous. The solution was taken to dryness under reduced pressure.

With COCCNC(=O)CN(CCN(CCN(CC(=O)[O-])CC(=O)NCCOC)CC(=O)[O-])CC(=O)[O-].[Gd+3] [Example II, {N,N"-Bis[N-(2-methoxyethyl)-carbamoylmethyl]diethylenetriamine-N,N',N"-triaceto}gadolinium (III)] the “T1 Relaxation Rate” value ([1]; 4% HSA/0.9% NaCl) was 4400 M⁻¹ s⁻¹, the “T2 Relaxation Rate” value ([1]; 4% HSA/0.9% NaCl) was 6380 M⁻¹ s⁻¹ and the “T1 Relaxation Rate” value ([1]; H2O (SWFI)) was 4690 M⁻¹ s⁻¹. For the same compound, the “T2 Relaxation Rate” value ([1]; H2O (SWFI)) was 4810 M⁻¹ s⁻¹, the “Deaths, Delayed (1-24 hr)” value (ICR mice; 6.8 mmol/kg i.v., ICR mice) was 0 and the “Deaths, Delayed (1-7 days)” value (ICR mice; 6.8 mmol/kg i.v., ICR mice) was 0. The “Deaths, Immediate (0-1 hr)” value (ICR mice; 6.8 mmol/kg i.v., ICR mice) was 0, the “Deaths, Total” value (ICR mice; 6.8 mmol/kg i.v., ICR mice) was 0/2 and the “Body Weight Change” value (ICR mice; 6.8 mmol/kg i.v., female ICR mice) was “+2.1 g”. For the same compound, the “Body Weight Change” value (ICR mice; 6.8 mmol/kg i.v., male ICR mice) was -1.1 g, the “Deaths, Delayed (1-24 hr)” value (ICR mice; 13.6 mmol/kg i.v., ICR mice) was 0 and the “Deaths, Delayed (1-7 days)” value (ICR mice; 13.6 mmol/kg i.v., ICR mice) was 0. The “Deaths, Immediate (0-1 hr)” value (ICR mice; 13.6 mmol/kg i.v., ICR mice) was 0, the “Deaths, Total” value (ICR mice; 13.6 mmol/kg i.v., ICR mice) was 0/2 and the “Body Weight Change” value (ICR mice; 13.6 mmol/kg i.v., female ICR mice) was “+1.4 g”. For the same compound, the “Body Weight Change” value (ICR mice; 13.6 mmol/kg i.v., male ICR mice) was “+1.6 g”, the “Deaths, Delayed (1-24 hr)” value (ICR mice; 20.4 mmol/kg i.v., ICR mice) was 0 and the “Deaths, Delayed (1-7 days)” value (ICR mice; 20.4 mmol/kg i.v., ICR mice) was 0. The “Deaths, Immediate (0-1 hr)” value (ICR mice; 20.4 mmol/kg i.v., ICR mice) was 1, the “Deaths, Total” value (ICR mice; 20.4 mmol/kg i.v., ICR mice) was 1/4 and the “Body Weight Change” value (ICR mice; 20.4 mmol/kg i.v., female ICR mice) was -3.2 g. The “Body Weight Change” value (ICR mice; 20.4 mmol/kg i.v., male ICR mice) was -1.1 g, the “Deaths, Delayed (1-24 hr)” value (ICR mice; 27.2 mmol/kg i.v., ICR mice) was 0 and the “Deaths, Immediate (0-1 hr)” value (ICR mice; 27.2 mmol/kg i.v., ICR mice) was 2. For the same compound, the “Deaths, Total” value (ICR mice; 27.2 mmol/kg i.v., ICR mice) was 4/4, the “Deaths, Immediate (0-1 hr)” value (ICR mice; 34.0 mmol/kg i.v., ICR mice) was 4 and the “Deaths, Total” value (ICR mice; 34.0 mmol/kg i.v., ICR mice) was 4/4. The “body weight gain of surviving mice” value (ICR mice; 7-day post-injection period, i.v., ICR mice) was “failed to gain weight”, the “95% Confidence Limits of LD50” value (ICR mice; ICR mice, single i.v., 7 days) was 17.4 to 29.0 mmol/kg and the LD50 (ICR mice; ICR mice, single i.v., 7 days post injection, modified Behrens-Reed-Meunch method) was 22.5 mmol/kg. For the same compound, the “gross organ abnormality at necropsy” value (ICR mice; one female dosed with 20.4 mmol/kg i.v.) was “a "pale" colored liver”, the “gross organ abnormality at necropsy, other mice” value (ICR mice; other mice at 20.4 mmol/kg or lower, i.v.) was “No other mice at 20.4 mmol/kg or lower showed similar abnormalities” and the “order of i.v. toxicity” value (ICR mice; preliminary tests, ICR mice) was “low order of i.v. toxicity”.

In the case of COCCNC(=O)CN(CCN(CC(=O)[O-])CC(=O)NCCOC)CC(=O)[O-].[Mn+2] [Example X, {N,N'-Bis[N-(2-methoxyethyl)carbamoyl-methyl]-ethylenediamine-N,N'-diaceto}manganese(II)], the solubility in water (solubility in water) is reported as “very soluble in water”.
